Assays:
Format in all cases: functional, cell-based
HCT-15 = test: Cytotoxicity against human HCT15 cells by SRB assay
SK-MEL-2 = test: Cytotoxicity against human SK-MEL-2 cells by SRB assay
SK-OV-3 = test: Cytotoxicity against human SKOV3 cells by SRB assay
A549 = test: Cytotoxicity against human A549 cells by SRB assay

SMILES | IC50 (HCT-15) | IC50 (SK-MEL-2) | IC50 (SK-OV-3) | IC50 (A549)
CC1(C)C[C@@H]2[C@H]([C@H]1O)[C@@](C)(O)CC1=C(C(=O)OC1)[C@H]2O [5-DESOXYLACTAROLIDE B] | 29.3 µM | > 30 µM | > 30 µM | 17.9 µM
COc1cccc2c1C(=O)c1c(O)c3c(c(O)c1C2=O)C[C@@](O)(C(=O)CO)C[C@@H]3O[C@H]1C[C@H](N)[C@H](O)[C@H](C)O1 [DOXORUBICIN] | 0.028 µM | 0.002 µM | 0.001 µM | –
CC1(C)C[C@H]2[C@H](O)c3cocc3C[C@](C)(O)[C@H]2C1 [FURANDIOL] | > 30 µM | > 30 µM | > 30 µM | > 30 µM
CC1(C)C[C@H]2[C@H](O)C3=C(C[C@](C)(O)[C@H]2C1)C(=O)OC3O (stereo partly specified) [LACTAROLIDE A] | 28.6 µM | 28.3 µM | > 30 µM | 22.9 µM
CC1(C)C[C@H]2[C@H](O)C3=C(C[C@](C)(O)[C@H]2C1)C(=O)OC3 [LACTARORUFIN A] | 20.9 µM | > 30 µM | > 30 µM | 27 µM
C[C@H]1CC2=C(COC2=O)C[C@@H]2[C@@H](O)[C@](C)(CO)C[C@@]21O [SUBVELLEROLACTONES B] | 14.2 µM | 18.3 µM | > 30 µM | 26.5 µM
C[C@@H]1[C@@H]2C(=CC3=C(C(=O)O[C@@H]3O)[C@@H]1O)CC(C)(C)[C@@H]2O [SUBVELLEROLACTONES D] | 17.8 µM | > 30 µM | > 30 µM | 25.1 µM
C[C@@H]1[C@@H]2C(=CC3=C(C(=O)O[C@H]3O)[C@@H]1O)CC(C)(C)[C@@H]2O [SUBVELLEROLACTONES E] | 28.7 µM | > 30 µM | > 30 µM | 19.6 µM

Source: ChEMBL document CHEMBL1221373, “Lactarane sesquiterpenoids from Lactarius subvellereus and their cytotoxicity” (Bioorg Med Chem Lett, 2010)
